According to ChEMBL document CHEMBL4622872, “Discovery of DS-1971a, a Potent, Selective NaV1.7 Inhibitor” (J Med Chem, 2020):
≈ marks a conversion by molar mass, not a printed value.

Tests used:
[1] = Distribution coefficient, log D of the compound in 1-octanol and PBS buffer at pH 7.4 measured after 30 mins by LC-MS analysis; assay type: physicochemical; conditions: 1-octanol/PBS buffer
[2] = Aqueous thermodynamic solubility of the compound at pH 6.8 measured after 4 hrs by UV-HPLC analysis; assay type: physicochemical; conditions: buffer, pH 6.8; read-out: Therm_solubility
[3] = Stability of the compound in mouse liver microsomes assessed as parent compound remaining measured after 0.5 hrs; assay type: ADME, Microsome; conditions: mouse liver microsomes, read-out: Stability

Row | logD at 0.5 h [1] | solubility thermodynamic at 4 h [2] | remaining at 0.5 h [3] | SMILES
1 | 0.7 | > 2000 µM | 75% | Cn1nccc1[C@H]1CCCC[C@@H]1Oc1cc(F)c(S(=O)(=O)Nc2ncns2)cc1F (racemic)
2 | 0.3 | 740 µM (≈ 322 µg/mL) | 100% | Cn1nccc1[C@H]1CCC[C@@H]1Oc1cc(F)c(S(=O)(=O)Nc2ccncn2)cc1F (racemic)
3 | 0.6 | 1040 µM (≈ 482 µg/mL) | 97% | Cn1nccc1[C@H]1CCCCC[C@@H]1Oc1cc(F)c(S(=O)(=O)Nc2ccncn2)c(F)c1 (racemic)
4 | 0.1 | 1800 µM (≈ 784 µg/mL) | 80% | Cn1nccc1[C@H]1CCC[C@@H]1Oc1cc(F)c(S(=O)(=O)Nc2ccncn2)c(F)c1 (racemic)
